Assays:
Type in all cases: biochemical
FAK = FAK (Homo sapiens, UniProt Q05397); test: FAK activity; conditions: 20 μM, data not shown
PKC alpha = PKC alpha (Homo sapiens, UniProt P17252); test: PKC kinase activity assay
Procedure: (§1) In a final reaction volume of […] PKC kinase (h) (5-10 mU) is incubated with 20 mM HEPES pH 7.4, 0.03% Triton X-100, […], 0.1 mg/mL phosphatidylserine, 10 μg/mL diacylglycerol, 0.1 mg/mL histone H1 or 50 μM of the peptide ERMRPRKRQGSVRRRV (SEQ ID No. 20), 10 mM MgAcetate and [γ-33P-ATP] (specific activity approx. 500 cpm/pmol, concentration as required). The reaction is initiated by the addition of the MgATP mix. After incubation for 40 minutes at room temperature, the reaction is stopped by the addition of 5 μL of a 3% phosphoric acid solution. 10 μL of the reaction is then spotted onto a P30 filtermat and washed three times for 5 minutes in 75 mM phosphoric acid and once in methanol prior to drying and scintillation counting.

PKC beta I = PKC beta I (Homo sapiens, UniProt P05771); test: PKC kinase activity assay
Procedure: as §1

PKC beta II = PKC beta II (Homo sapiens, UniProt P05771); test: PKC kinase activity assay
Procedure: as §1

kinases listed Table 2 = test: Kinase dose response study (kinases listed Table 2); conditions: range over all kinases of Table 2; read-out: IC50 percentage inhibition of activity for all the kinases
Procedure: In a dose response study, the inhibition of the activity of the kinases listed Table 2 at increasing concentrations of dendrimer Dend 10-10(4)DP (see Example 2.3) was assessed employing the treatment protocols described in Examples 1 to 3. As shown in the table, inhibition of kinase activity was obtained by the dendrimer at all the concentrations tested. The IC50 percentage inhibition of activity for all the kinases was in the range of from 0.25-2.0 μM. The results shown in Table 2 are percentage inhibition relative to controls. Comparative dose results for 1 μM dendrimer Dend 10-10(4) are also shown.

PKB beta = PKB beta (Homo sapiens, UniProt P31751); test: PKB kinase activity assay
Procedure: (§2) In a final reaction volume of 25 μL, PKB(h) (5-10 mU) is incubated with 8 mM MOPS pH 7.0, 0.2 mM EDTA, 30 μM GRPRTSSFAEGKK (SEQ ID No. 26), 10 mM MgAcetate and [γ-33P-ATP] (specific activity approx. 500 cpm/pmol, concentration as required). The reaction is initiated by the addition of the MgATP mix. After incubation for 40 minutes at room temperature, the reaction is stopped by the addition of 5 μL of a 3% phosphoric acid solution. 10 μL of the reaction mixture is then spotted onto a P30 filtermat and washed three times for 5 minutes in 75 mM phosphoric acid and once in methanol prior to drying and scintillation counting.

PKB gamma = PKB gamma (Homo sapiens, UniProt Q9Y243); test: PKB kinase activity assay
Procedure: as §2

PKC beta I, sequence (P05771 whole entry): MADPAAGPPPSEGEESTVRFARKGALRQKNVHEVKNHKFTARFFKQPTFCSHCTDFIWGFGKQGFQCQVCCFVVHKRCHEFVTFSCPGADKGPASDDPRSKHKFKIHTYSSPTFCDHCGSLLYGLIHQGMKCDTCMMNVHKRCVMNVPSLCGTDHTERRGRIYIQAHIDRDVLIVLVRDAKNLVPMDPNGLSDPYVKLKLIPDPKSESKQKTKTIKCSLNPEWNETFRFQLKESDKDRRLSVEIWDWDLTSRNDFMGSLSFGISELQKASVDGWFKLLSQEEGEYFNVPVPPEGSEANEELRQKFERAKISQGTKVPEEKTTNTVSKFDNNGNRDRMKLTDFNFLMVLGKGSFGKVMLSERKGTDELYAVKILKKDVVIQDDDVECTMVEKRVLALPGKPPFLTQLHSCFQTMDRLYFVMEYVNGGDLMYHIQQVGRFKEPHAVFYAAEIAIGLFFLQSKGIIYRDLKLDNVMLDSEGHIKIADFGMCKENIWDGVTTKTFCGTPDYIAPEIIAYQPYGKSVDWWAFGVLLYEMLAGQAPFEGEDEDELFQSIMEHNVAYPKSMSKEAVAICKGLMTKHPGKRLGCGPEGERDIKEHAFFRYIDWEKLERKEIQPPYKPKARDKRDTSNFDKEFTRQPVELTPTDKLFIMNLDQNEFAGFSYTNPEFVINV
PKC beta II, sequence (P05771 1-673 isoform P05771-2): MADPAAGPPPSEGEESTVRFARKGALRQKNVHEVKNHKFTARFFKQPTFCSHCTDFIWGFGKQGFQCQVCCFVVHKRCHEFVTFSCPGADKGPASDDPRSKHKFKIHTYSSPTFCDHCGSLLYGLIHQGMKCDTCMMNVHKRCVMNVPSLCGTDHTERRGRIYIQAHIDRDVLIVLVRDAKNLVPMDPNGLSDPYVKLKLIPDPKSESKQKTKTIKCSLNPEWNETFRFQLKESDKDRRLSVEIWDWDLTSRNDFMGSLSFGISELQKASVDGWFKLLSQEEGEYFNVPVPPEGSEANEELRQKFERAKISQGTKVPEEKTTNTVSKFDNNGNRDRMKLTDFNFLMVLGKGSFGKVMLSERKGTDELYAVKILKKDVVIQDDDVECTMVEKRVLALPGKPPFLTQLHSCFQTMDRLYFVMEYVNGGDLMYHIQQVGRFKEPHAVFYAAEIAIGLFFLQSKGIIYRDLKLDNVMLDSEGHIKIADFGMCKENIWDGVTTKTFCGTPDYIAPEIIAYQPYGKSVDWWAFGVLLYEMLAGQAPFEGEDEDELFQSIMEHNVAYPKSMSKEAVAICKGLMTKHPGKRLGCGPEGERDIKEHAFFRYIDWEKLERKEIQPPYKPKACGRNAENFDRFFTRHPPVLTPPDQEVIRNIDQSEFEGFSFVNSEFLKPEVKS
PKB beta, sequence (P31751 whole entry): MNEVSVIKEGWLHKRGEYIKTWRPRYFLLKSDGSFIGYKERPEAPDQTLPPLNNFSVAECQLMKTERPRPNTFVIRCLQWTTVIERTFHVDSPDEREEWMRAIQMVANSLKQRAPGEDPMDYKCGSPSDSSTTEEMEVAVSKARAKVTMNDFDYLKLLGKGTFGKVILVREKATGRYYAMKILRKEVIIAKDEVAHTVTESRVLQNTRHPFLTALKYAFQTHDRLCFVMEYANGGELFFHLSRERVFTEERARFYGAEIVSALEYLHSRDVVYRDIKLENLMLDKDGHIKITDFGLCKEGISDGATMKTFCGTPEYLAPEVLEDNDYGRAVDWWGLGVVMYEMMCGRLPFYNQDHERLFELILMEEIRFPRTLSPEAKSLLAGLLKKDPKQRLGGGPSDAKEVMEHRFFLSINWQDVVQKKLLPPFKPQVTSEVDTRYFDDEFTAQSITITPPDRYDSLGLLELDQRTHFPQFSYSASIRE
PKB gamma, sequence (Q9Y243 whole entry): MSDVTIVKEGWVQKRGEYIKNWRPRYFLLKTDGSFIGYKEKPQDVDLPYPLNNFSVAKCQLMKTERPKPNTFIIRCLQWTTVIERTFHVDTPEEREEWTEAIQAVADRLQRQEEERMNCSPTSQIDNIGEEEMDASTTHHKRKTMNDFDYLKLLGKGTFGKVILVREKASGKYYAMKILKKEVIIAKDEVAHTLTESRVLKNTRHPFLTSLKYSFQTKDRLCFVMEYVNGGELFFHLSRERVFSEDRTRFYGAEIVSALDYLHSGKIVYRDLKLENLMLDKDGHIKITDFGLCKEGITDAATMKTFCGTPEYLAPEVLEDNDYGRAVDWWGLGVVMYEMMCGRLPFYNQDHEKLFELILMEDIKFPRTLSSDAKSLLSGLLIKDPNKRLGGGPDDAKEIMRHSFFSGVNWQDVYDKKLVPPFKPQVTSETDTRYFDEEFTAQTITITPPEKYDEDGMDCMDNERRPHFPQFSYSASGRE
FAK, sequence (Q05397 whole entry, species assumed): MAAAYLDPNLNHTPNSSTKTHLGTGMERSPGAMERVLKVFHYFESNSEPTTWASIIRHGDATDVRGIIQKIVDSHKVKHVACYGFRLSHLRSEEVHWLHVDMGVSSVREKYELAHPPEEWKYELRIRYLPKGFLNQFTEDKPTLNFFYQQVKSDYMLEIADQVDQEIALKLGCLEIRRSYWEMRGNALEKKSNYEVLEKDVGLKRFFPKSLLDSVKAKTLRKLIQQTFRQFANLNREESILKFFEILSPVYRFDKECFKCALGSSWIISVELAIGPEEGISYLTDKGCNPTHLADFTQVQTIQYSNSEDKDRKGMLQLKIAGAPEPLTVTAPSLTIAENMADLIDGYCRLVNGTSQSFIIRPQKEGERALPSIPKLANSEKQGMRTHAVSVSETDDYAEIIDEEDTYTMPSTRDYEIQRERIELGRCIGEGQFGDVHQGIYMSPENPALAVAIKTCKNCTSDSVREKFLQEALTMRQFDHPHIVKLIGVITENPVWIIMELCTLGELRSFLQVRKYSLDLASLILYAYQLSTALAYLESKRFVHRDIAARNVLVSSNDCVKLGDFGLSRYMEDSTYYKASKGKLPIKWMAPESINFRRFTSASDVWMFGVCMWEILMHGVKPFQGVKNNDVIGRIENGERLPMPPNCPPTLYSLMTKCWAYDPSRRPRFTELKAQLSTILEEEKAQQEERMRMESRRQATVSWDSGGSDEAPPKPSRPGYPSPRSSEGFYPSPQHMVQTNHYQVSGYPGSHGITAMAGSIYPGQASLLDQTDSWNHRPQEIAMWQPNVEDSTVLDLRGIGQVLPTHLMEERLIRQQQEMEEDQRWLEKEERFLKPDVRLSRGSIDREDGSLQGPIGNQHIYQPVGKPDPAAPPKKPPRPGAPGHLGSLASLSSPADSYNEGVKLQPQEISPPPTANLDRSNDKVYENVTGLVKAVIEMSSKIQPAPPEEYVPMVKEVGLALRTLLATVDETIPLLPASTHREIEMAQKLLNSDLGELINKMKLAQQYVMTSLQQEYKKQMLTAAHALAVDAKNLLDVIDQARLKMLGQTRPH

Dend 10-10(4) whose RSKAKNPLYR peptides are entirely D-amino acids and pegylated with two ethylene glycol units [Dend 10-10(4)DP]
effect on activity of FAK (FAK): without any effect | % Kinase inhibition PKC alpha (PKC alpha; 20 μM, relative to control): 98% | Percentage (%) kinase inhibition PKC alpha (PKC alpha; dendrimer conc. 1 μM): 83% | Percentage (%) kinase inhibition PKC alpha (PKC alpha; dendrimer conc. 2 μM): 98% | Percentage (%) kinase inhibition PKC alpha (PKC alpha; dendrimer conc. 250 nm): 23% | Percentage (%) kinase inhibition PKC alpha (PKC alpha; dendrimer conc. 500 nm): 45% | % Kinase inhibition PKC beta I (PKC beta I; 20 μM, relative to control): 98% | Percentage (%) kinase inhibition PKC beta I (PKC beta I; dendrimer conc. 1 μM): 80% | Percentage (%) kinase inhibition PKC beta I (PKC beta I; dendrimer conc. 2 μM): 96% | Percentage (%) kinase inhibition PKC beta I (PKC beta I; dendrimer conc. 250 nm): 19% | Percentage (%) kinase inhibition PKC beta I (PKC beta I; dendrimer conc. 500 nm): 35% | % Kinase inhibition PKC beta II (PKC beta II; 20 μM, relative to control): 83% | Percentage (%) kinase inhibition PKC beta II (PKC beta II; dendrimer conc. 1 μM): 82% | Percentage (%) kinase inhibition PKC beta II (PKC beta II; dendrimer conc. 2 μM): 95% | Percentage (%) kinase inhibition PKC beta II (PKC beta II; dendrimer conc. 250 nm): 22% | Percentage (%) kinase inhibition PKC beta II (PKC beta II; dendrimer conc. 500 nm): 44% | IC50 (kinases listed Table 2): 250 to 2000 nM | % Kinase inhibition PKB beta (PKB beta; 20 μM, relative to control): 85% | Percentage (%) kinase inhibition PKB beta (PKB beta; dendrimer conc. 1 μM): 68% | Percentage (%) kinase inhibition PKB beta (PKB beta; dendrimer conc. 2 μM): 70% | Percentage (%) kinase inhibition PKB beta (PKB beta; dendrimer conc. 250 nm): 53% | Percentage (%) kinase inhibition PKB beta (PKB beta; dendrimer conc. 500 nm): 66% | % Kinase inhibition PKB gamma (PKB gamma; 20 μM, relative to control): 96% | Percentage (%) kinase inhibition PKB gamma (PKB gamma; dendrimer conc. 1 μM): 93% | Percentage (%) kinase inhibition PKB gamma (PKB gamma; dendrimer conc. 2 μM): 92% | Percentage (%) kinase inhibition PKB gamma (PKB gamma; dendrimer conc. 250 nm): 94% | Percentage (%) kinase inhibition PKB gamma (PKB gamma; dendrimer conc. 500 nm): 98%
